From PubChem BioAssay AID1963842 (Molecular Pharmacology Branch, DTP, NCI, 2024)

Test system: 677734-321-R-J1-PDC complex spheroid viability
Assay: Anticancer human tumor 677734-321-R-J1-PDC patient-derived soft tissue sarcoma cell line growth inhibition [POLQ]
Settings: for IC50: curve of first compound; for viability, T/C: stronger effect = lower value
How it was run: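 Complex spheroid viability model combining PDC tumour cells with endothelial (HUVEC) and MSC stromal cells. Novobiocin, ART-558 or RP6685 were tested singly and in combination with standard and investigational anticancer drugs. Each was titrated in half-log steps from near clinical Cmax, or from 10 microM where Cmax was unknown.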

[1] = second compound 0.0316 µM, first compound 0.0316 µM
[2] = second compound 0.0316 µM, first compound 0.1 µM
[3] = second compound 0.0316 µM, first compound 0.316 µM
[4] = second compound 0.0316 µM, first compound 1 µM
[5] = second compound 0.0316 µM, first compound 3.16 µM
[6] = second compound 0.0316 µM, first compound 10 µM
[7] = second compound 0.1 µM, first compound 0.0316 µM
[8] = second compound 0.1 µM, first compound 0.1 µM
[9] = second compound 0.1 µM, first compound 0.316 µM
[10] = second compound 0.1 µM, first compound 1 µM
[11] = second compound 0.1 µM, first compound 3.16 µM
[12] = second compound 0.1 µM, first compound 10 µM
[13] = second compound 0.316 µM, first compound 0.0316 µM
[14] = second compound 0.316 µM, first compound 0.1 µM
[15] = second compound 0.316 µM, first compound 0.316 µM
[16] = second compound 0.316 µM, first compound 1 µM
[17] = second compound 0.316 µM, first compound 3.16 µM
[18] = second compound 0.316 µM, first compound 10 µM
[19] = second compound 1 µM, first compound 0.0316 µM
[20] = second compound 1 µM, first compound 0.1 µM
[21] = second compound 1 µM, first compound 0.316 µM
[22] = second compound 1 µM, first compound 1 µM
[23] = second compound 1 µM, first compound 3.16 µM
[24] = second compound 1 µM, first compound 10 µM
[25] = second compound 3.16 µM, first compound 0.0316 µM
[26] = second compound 3.16 µM, first compound 0.1 µM
[27] = second compound 3.16 µM, first compound 0.316 µM
[28] = second compound 3.16 µM, first compound 1 µM
[29] = second compound 3.16 µM, first compound 3.16 µM
[30] = second compound 3.16 µM, first compound 10 µM
[31] = second compound 10 µM, first compound 0.0316 µM
[32] = second compound 10 µM, first compound 0.1 µM
[33] = second compound 10 µM, first compound 0.316 µM
[34] = second compound 10 µM, first compound 1 µM
[35] = second compound 10 µM, first compound 3.16 µM
[36] = second compound 10 µM, first compound 10 µM
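Also: spheroids exposed to compounds for one week.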
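For viability, T/C in this document: 100% = vehicle DMSO treated spheroids.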

In the case of `C#Cc1c(F)ccc2cc(O)cc(-c3ncc4c(N5CC6CCC(C5)N6)nc(OCC56CCCN5CC(F)C6)nc4c3F)c12` (stereo unspecified) + COC1C(OC(N)=O)C(O)C(Oc2ccc3c(O)c(NC(=O)c4ccc(O)c(CC=C(C)C)c4)c(=O)oc3c2C)OC1(C)C, the IC50 (second compound 0.0316 µM) is reported as > 10 µM, the IC50 (second compound 0.1 µM) is reported as > 10 µM and the IC50 (second compound 0.316 µM) is reported as > 10 µM. For the same compound, the IC50 (second compound 1 µM) was > 10 µM, the IC50 (second compound 3.16 µM) was > 10 µM and the IC50 (second compound 10 µM) was > 10 µM. The viability, T/C [1] was 108%, the viability, T/C [2] was 92.2% and the viability, T/C [3] was 104%. It also gave a viability, T/C [4] of 104%, a viability, T/C [5] of 111% and a viability, T/C [6] of 98%. The viability, T/C [7] was 100%, the viability, T/C [8] was 104% and the viability, T/C [9] was 95.1%. The viability, T/C [10] was 99.7%, the viability, T/C [11] was 104% and the viability, T/C [12] was 98.7%. The viability, T/C [13] was 108%, the viability, T/C [14] was 98.8% and the viability, T/C [15] was 102%. For the same compound, the viability, T/C [16] was 107%, the viability, T/C [17] was 107% and the viability, T/C [18] was 102%. It also gave a viability, T/C [19] of 104%, a viability, T/C [20] of 97.5% and a viability, T/C [21] of 111%. It also gave a viability, T/C [22] of 109%, a viability, T/C [23] of 103% and a viability, T/C [24] of 103%. For the same compound, the viability, T/C [25] was 103%, the viability, T/C [26] was 95.5% and the viability, T/C [27] was 101%. It also gave a viability, T/C [28] of 105%, a viability, T/C [29] of 103% and a viability, T/C [30] of 102%. It also gave a viability, T/C [31] of 112%, a viability, T/C [32] of 102% and a viability, T/C [33] of 103%. The viability, T/C [34] was 100%, the viability, T/C [35] was 98.7% and the viability, T/C [36] was 111%.
`CC1COCCN1c1cc(C2(O)CC3CCC(C2)O3)c2cnn(-c3ccn[nH]3)c2n1` (stereo unspecified) + COC1C(OC(N)=O)C(O)C(Oc2ccc3c(O)c(NC(=O)c4ccc(O)c(CC=C(C)C)c4)c(=O)oc3c2C)OC1(C)C was tested, and the IC50 (second compound 0.0316 µM) was 0.131 µM, the IC50 (second compound 0.1 µM) was 0.15 µM and the IC50 (second compound 0.316 µM) was 0.0872 µM. The IC50 (second compound 1 µM) was 0.115 µM, the IC50 (second compound 3.16 µM) was 0.097 µM and the IC50 (second compound 10 µM) was 0.0858 µM. It also gave a viability, T/C [1] of 87.1%, a viability, T/C [2] of 58.1% and a viability, T/C [3] of 24.2%. It also gave a viability, T/C [4] of 16.8%, a viability, T/C [5] of 17.9% and a viability, T/C [6] of 16.3%. The viability, T/C [7] was 92.9%, the viability, T/C [8] was 64.7% and the viability, T/C [9] was 22.7%. It also gave a viability, T/C [10] of 16.4%, a viability, T/C [11] of 13.5% and a viability, T/C [12] of 13.3%. The viability, T/C [13] was 80.2%, the viability, T/C [14] was 46.2% and the viability, T/C [15] was 22.6%. For the same compound, the viability, T/C [16] was 19.1%, the viability, T/C [17] was 14.7% and the viability, T/C [18] was 13.8%. It also gave a viability, T/C [19] of 92.5%, a viability, T/C [20] of 54.2% and a viability, T/C [21] of 18.6%. It also gave a viability, T/C [22] of 15.9%, a viability, T/C [23] of 17.1% and a viability, T/C [24] of 14.2%. The viability, T/C [25] was 85.3%, the viability, T/C [26] was 49% and the viability, T/C [27] was 25.4%. It also gave a viability, T/C [28] of 16.7%, a viability, T/C [29] of 15.2% and a viability, T/C [30] of 14.6%. The viability, T/C [31] was 89.6%, the viability, T/C [32] was 43.9% and the viability, T/C [33] was 21.3%. The viability, T/C [34] was 15.6%, the viability, T/C [35] was 16.1% and the viability, T/C [36] was 15.4%.
For `CCc1cc2c(N3CCc4c(cc(Cn5ccnc5)cc4-c4cn(C)nc4C(F)(F)F)C3=O)cc(C)nc2c(OC)n1` + COC1C(OC(N)=O)C(O)C(Oc2ccc3c(O)c(NC(=O)c4ccc(O)c(CC=C(C)C)c4)c(=O)oc3c2C)OC1(C)C, the IC50 (second compound 0.0316 µM) was > 10 µM, the IC50 (second compound 0.1 µM) was > 10 µM and the IC50 (second compound 0.316 µM) was > 10 µM. For the same compound, the IC50 (second compound 1 µM) was > 10 µM, the IC50 (second compound 3.16 µM) was > 10 µM and the IC50 (second compound 10 µM) was > 10 µM. It also gave a viability, T/C [1] of 111%, a viability, T/C [2] of 110% and a viability, T/C [3] of 94.5%. The viability, T/C [4] was 98.2%, the viability, T/C [5] was 77.7% and the viability, T/C [6] was 53.4%. The viability, T/C [7] was 106%, the viability, T/C [8] was 111% and the viability, T/C [9] was 97.7%. The viability, T/C [10] was 98.8%, the viability, T/C [11] was 73.7% and the viability, T/C [12] was 59.3%. It also gave a viability, T/C [13] of 112%, a viability, T/C [14] of 108% and a viability, T/C [15] of 98.7%. The viability, T/C [16] was 96.9%, the viability, T/C [17] was 79.5% and the viability, T/C [18] was 49.4%. The viability, T/C [19] was 124%, the viability, T/C [20] was 105% and the viability, T/C [21] was 108%. For the same compound, the viability, T/C [22] was 93.4%, the viability, T/C [23] was 75.5% and the viability, T/C [24] was 52.9%. For the same compound, the viability, T/C [25] was 109%, the viability, T/C [26] was 111% and the viability, T/C [27] was 103%. For the same compound, the viability, T/C [28] was 98.2%, the viability, T/C [29] was 82% and the viability, T/C [30] was 54.4%. The viability, T/C [31] was 108%, the viability, T/C [32] was 110% and the viability, T/C [33] was 98.4%. For the same compound, the viability, T/C [34] was 91.4%, the viability, T/C [35] was 67.3% and the viability, T/C [36] was 50.8%.
